“Also recorded” adds a separate entry of the source.
What was measured:
Format in all cases: cell-based
[1] = test system: MCF-7 human breast cancer cell lines; test: MTT proliferation (cytotoxicity) assay on MCF-7 cells; settings: for cytotoxicity against MCF-7 (in words): 10-100 µM, 24-72 h; for cytotoxicity against MCF-7 (in words) / IC50: MTT; for SI (selectivity index) MCF-7: IC50 normal cells (MCF-10A) divided by IC50 MCF-7; for IC50: Homo sapiens, MCF7
Excerpt: (§1) MCF-7 and MDA-MB-231 human breast cancer cell lines, as well as MCF-10A human normal breast cell lines, were used in this study. These cells were acquired from the American Type Culture Collection (Manassas, VA, USA). MCF-7 and MDAMB-231 cells were regularly cultured in Dulbecco’s Modified Eagle’s Medium (DMEM; Gibco, Waltham, MA, USA), and supplemented with 10% (v/v) foetal bovine serum (FBS; Gibco, Waltham, MA, USA) and 100 U/mL penicillin-streptomycin (PenStrep; Gibco, Waltham, MA, USA). MCF-10A cells were routinely cultured in DMEM/F12 (Gibco, Waltham, MA, USA) medium supplemented with 5% horse serum (Sigma-Aldrich, Burlington, MA, USA), 10 μg/mL of insulin (Sigma-Aldrich, Burlington, MA, USA), 20 ng/mL of human epidermal growth factor (hEGF; ThermoFisher, Waltham, MA, USA), 0.5 μg/mL of hydrocortisone (Sigma-Aldrich, Burlington, MA, USA) and 1 U/mL PenStrep. All cell lines were maintained in a humidified atmosphere with 5% CO2 at 37 °C.
(§2) The effects of the N-(2-cinnamylphenyl)amide products (i.e., isolated pure isomers) on MCF-7, MDA-MB-231 and MCF-10A were determined using a 3-(4,5-dimethylthiazol-2-yl)-2,5-diphenyltetrazolium bromide (MTT) proliferation assay. The cell lines were seeded in 96-well plates at a density of 1 × 10^4 cells/well and allowed to grow overnight for cell attachment. The cell lines were then treated with fresh assay medium, supplemented with increasing concentrations of tested compounds (10–100 µM) and incubated for 24–72 h at 37 °C. For this assay, the blank and negative controls used were the culture medium alone (without cells) and cells with culture medium only (untreated cells), respectively. […] At each incubation period (24, 48 and 72 h), 10 μL of MTT solution (5 mg/mL) was added to each well, and cells were further incubated for 4 h at 37 °C in 5% CO2. The solution mixture in each well was replaced with 100 μL of dimethyl sulfoxide (DMSO) to solubilise the MTT crystalline products. The optical density (O.D.) of each well was measured using a microplate reader (PowerWave-XS; Bio-Tek Instruments, Winooski, Vermont, USA) at 570 nm. The experiments were conducted in triplicate for each cell line.
(§3) The selectivity index (SI) was used to indicate the cytotoxic selectivity of the samples against cancer cells and normal cells. It was calculated from the IC50 of the samples in normal cells versus cancer cells. […] All data were analysed and presented as means standard deviation (±SD). Comparisons between each concentration of 18 samples were evaluated using Student’s t-test, where p < 0.05, p < 0.01 or p < 0.001 were considered as statistically significant relative to the untreated control cells.

[2] = test system: MDA-MB-231 human breast cancer cell lines; test: MTT proliferation (cytotoxicity) assay on MDA-MB-231 cells; settings: for cytotoxicity against MDA-MB-231 (in words): 10-100 µM, 24-72 h; for cytotoxicity against MDA-MB-231 (in words) / IC50: MTT; for SI (selectivity index) MDA-MB-231: IC50 normal cells (MCF-10A) divided by IC50 MDA-MB-231; for IC50: Homo sapiens, MDA-MB-231
Excerpt: as §1, §2, §3

[3] = test system: MCF-10A human normal breast cell lines; test: MTT proliferation (cytotoxicity) assay on MCF-10A normal cells
Excerpt: as §1, §2, §3

| Structure (SMILES) | cytotoxicity against MCF-7 (in words) [1] | SI (selectivity index) MCF-7 ([1]; 24 h) | SI (selectivity index) MCF-7 ([1]; 48 h) | SI (selectivity index) MCF-7 ([1]; 72 h) | IC50 ([1]; 24 h incubation) | IC50 ([1]; 48 h incubation) | IC50 ([1]; 72 h incubation) | cytotoxicity against MDA-MB-231 (in words) [2] | SI (selectivity index) MDA-MB-231 ([2]; 48 h) | SI (selectivity index) MDA-MB-231 ([2]; 72 h) | IC50 ([2]; 24 h incubation) | IC50 ([2]; 48 h incubation) | IC50 ([2]; 72 h incubation) | IC50 ([3]; 24 h incubation) | IC50 ([3]; 48 h incubation) | IC50 ([3]; 72 h incubation) | SI (selectivity index) MDA-MB-231 ([2]; 24 h) | SI value ([1]; abstract, time not stated, considered general toxicity) |
| --- | --- | --- | --- | --- | --- | --- | --- | --- | --- | --- | --- | --- | --- | --- | --- | --- | --- | --- |
| CCCCC(=O)Nc1ccccc1/C=C/Cc1ccc(OC)cc1 [Compound 6d, (E)-N-(2-(3-(4-Methoxyphenyl)prop-1-en-1-yl)phenyl)pentanamide] | low growth inhibition | > 1.06 | 1.01 | 1.41 | 94 ± 1.26 µM | 93.3 ± 2.15 µM | 65.8 ± 7.33 µM | inactive; also recorded: low growth inhibition | < 0.94 | < 0.93 | > 100 µM | > 100 µM | > 100 µM | > 100 µM | 94.4 ± 9.71 µM | 92.9 ± 8.71 µM | – | – |
| CCCCCC(=O)Nc1ccccc1/C=C/Cc1ccc(OC)cc1 [Compound 6e, (E)-N-(2-(3-(4-Methoxyphenyl)prop-1-en-1-yl)phenyl)hexanamide] | low growth inhibition | < 0.81 | < 0.90 | < 0.99 | > 100 µM | > 100 µM | > 100 µM | low growth inhibition | < 0.90 | < 0.99 | > 100 µM | > 100 µM | > 100 µM | 80.9 ± 7.58 µM | 90.1 ± 8.8 µM | 98.5 ± 2.6 µM | < 0.81 | – |
| COc1ccc(C/C=C/c2ccccc2NC(=O)c2ccccc2C)cc1 [Compound 6i, (E)-N-(2-(3-(4-Methoxyphenyl)prop-1-en-1-yl)phenyl)-2-methylbenzamide] | – | – | – | > 1.09 | > 100 µM | > 100 µM | 91.8 ± 7.95 µM | – | – | > 1.36 | > 100 µM | > 100 µM | 73.8 ± 6.92 µM | > 100 µM | > 100 µM | > 100 µM | – | – |
| CCCCC(=O)Nc1ccccc1C/C=C/c1ccc(OC)cc1 [Compound 7d, (E)-N-(2-(3-(4-Methoxyphenyl)allyl)phenyl)pentanamide] | low growth inhibition | > 1.70 | 1.54 | 1.49 | 58.9 ± 1.81 µM | 48.7 ± 3.46 µM | 47.9 ± 2.96 µM | inactive; also recorded: low growth inhibition | < 0.75 | < 0.71 | > 100 µM | > 100 µM | > 100 µM | > 100 µM | 75 ± 8.58 µM | 71.2 ± 9.25 µM | – | < 2 |
| CCCCCC(=O)Nc1ccccc1C/C=C/c1ccc(OC)cc1 [Compound 7e, (E)-N-(2-(3-(4-Methoxyphenyl)allyl)phenyl)hexanamide] | low growth inhibition | – | < 0.70 | 0.78 | > 100 µM | > 100 µM | 88.5 ± 2.37 µM | inactive; also recorded: low growth inhibition | < 0.70 | < 0.69 | > 100 µM | > 100 µM | > 100 µM | > 100 µM | 70.3 ± 1.88 µM | 69.18 ± 0.01 µM | – | – |
| COc1ccc(/C=C/Cc2ccccc2NC(=O)c2ccccc2C)cc1 [Compound 7i, (E)-N-(2-(3-(4-Methoxyphenyl)allyl)phenyl)-2-methylbenzamide] | low growth inhibition | – | – | – | – | – | – | low growth inhibition | – | – | – | – | – | – | – | – | – | – |

— publication PMC9457622, “Synthesis of Bio-Inspired 1,3-Diarylpropene Derivatives via Heck Cross-Coupling and Cytotoxic Evaluation on Breast Cancer Cells” (Molecules, 2022)
